As usually defined, the Ki is a dissociation constant, usually derived from enzyme kinetics or from competition with a known ligand. The low end stands for a stronger hold on the target, the high end for a looser hold on the target.

Values joined by “and” are separate entries in the source; they are usually repeats but may differ in a detail not shown here. Equal values may be shown once.

The target of this assay is Prostacyclin receptor (Homo sapiens, UniProt P43119).
Sequence of Prostacyclin receptor (P43119 whole entry): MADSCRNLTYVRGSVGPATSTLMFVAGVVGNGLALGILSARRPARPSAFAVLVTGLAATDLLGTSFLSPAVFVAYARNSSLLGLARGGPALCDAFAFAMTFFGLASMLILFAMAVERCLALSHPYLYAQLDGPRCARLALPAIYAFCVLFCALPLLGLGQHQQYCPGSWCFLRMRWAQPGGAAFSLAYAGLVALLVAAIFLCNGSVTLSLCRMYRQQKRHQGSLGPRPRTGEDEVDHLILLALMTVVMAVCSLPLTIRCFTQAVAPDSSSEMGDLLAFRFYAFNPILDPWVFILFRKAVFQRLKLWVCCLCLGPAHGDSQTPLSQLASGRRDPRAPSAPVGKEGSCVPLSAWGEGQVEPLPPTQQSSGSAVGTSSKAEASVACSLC
For `CCCCC[C@@H](O)/C=C/[C@H]1[C@H](O)CC(=O)[C@@H]1C/C=C\CCCC(=O)O`, the Ki was more than 10 µM.

In the case of `CCCCC[C@@H](O)/C=C/[C@H]1[C@H](O)CC(=O)[C@@H]1CCCCCCC(=O)O`, the Ki came to 0.137 µM.

In turn, `CCCCC[C@H](O)/C=C/[C@@H]1[C@H]2C/C(=C\CCCC(=O)O)C[C@H]2C[C@H]1O` gave a Ki of 0.0166 µM.

`CCCCC[C@H](O)/C=C/[C@@H]1[C@@H](CC(=O)CCC(=O)O)[C@@H](O)C[C@H]1O` [2,3-dinor-6-ketoprostaglandin F1alpha] showed a Ki of more than 10 µM.

For the compound `CCCCC[C@H](O)/C=C/C1[C@H](O)CC(=O)[C@H]1CCCCCCC(=O)O` (stereo partly drawn) [8-ISO PROSTAGLANDIN E1], the Ki was 0.735 µM.

As for `CCCCCC(=O)CC[C@H]1[C@H](O)CC(=O)[C@@H]1C/C=C\CCCC(=O)O` [13,14-DIHYDRO-15-KETO PROSTAGLANDIN E2], the Ki is 8.41 µM and > 10 µM.

Turning to `O=C(O)CCC/C=C\C[C@H]1C(=O)C[C@@H](O)[C@@H]1/C=C/[C@@H](O)CCc1ccccc1` [17-PHENYL TRINOR PROSTAGLANDIN E2], the Ki was 4.37 µM. In other words, the single-digit micromolar range.

Turning to `CCCCC[C@H](O)/C=C/[C@H]1[C@H](O)CC(=O)[C@@H]1C/C=C/CCCC(=O)O` [(E)-7-((1R,2R,3R)-3-hydroxy-2-((S,E)-3-hydroxyoct-1-enyl)-5-oxocyclopentyl)hept-5-enoic acid], the affinity, expressed as Ki, was 0.735 µM.

`CCCCC[C@H](O)/C=C/C1[C@H](O)C[C@H](O)[C@@H]1C/C=C\CCCC(=O)O` (stereo partly drawn) [(Z)-7-[(1R,3R,5S)-3,5-Dihydroxy-2-((E)-(S)-3-hydroxy-oct-1-enyl)-cyclopentyl]-hept-5-enoic acid] yielded a Ki of more than 10 µM.

`CCCCC[C@H](O)CC[C@H]1[C@H](O)CC(=O)[C@@H]1CCCCCCC(=O)O` [CAS_19313-28-1] displayed a Ki of 0.315 µM.

Turning to `CCCCCC(O)C=CC1C(O)CC2OC(CCCCC(=O)O)CC21` (stereo not drawn) [CAS_162981], the Ki was 7.35 µM.

In the case of `CCCCC[C@H](O)/C=C/[C@H]1[C@H](O)CC(=O)[C@@H]1C/C=C\CCCC(=O)O` [DINOPROSTONE], the Ki was more than 10 µM.

`CCCCCC(O)C=CC1C(O)CC(O)C1CCCCCCC(=O)O` (stereo not drawn) [NSC_5280939]: the Ki is more than 10 µM.

The record behind these values is BindingDB's records for doi:10.1111/j.1476-5381.1981.tb10994.x (Royal Postgraduate Medical School, 1981).
